Earlier results on one molecule are cited in patent US12391711B2 (priority 2020, dated 2025).

For this series the following is noted: human, Pain Res. Manag., 2005, 10: 15A-22A.

Take `CCCCCc1cc(O)c2c(c1)OC(C)(C)[C@@H]1CCC(C)=C[C@@H]21` [THC, (6aR,10aR)-6,6,9-trimethyl-3-pentyl-6a,7,8,10a-tetrahydro-6H-benzo[c]chromen-1-ol]: the oral bioavailability is reported as 4%-12%.
